According to US6734190B2, “Dihydrodipyrazolopyridinylbenzamide and -sulfonamide inhibitors of B7-1” (Wyeth, priority 2002, dated 2004):

The molecules below were run against T1, B7-1/CD28 (Homo sapiens, UniProt P33681) (assay: CD28/B7-1 ELISA (B7-1/CD28 binding inhibition)). Details: CD28-Fc coated wells; B7-1-Fc-biotin/streptavidin-alkaline phosphatase detection complex; 1% DMSO.
T1 sequence (P33681 35-242 limits assumed): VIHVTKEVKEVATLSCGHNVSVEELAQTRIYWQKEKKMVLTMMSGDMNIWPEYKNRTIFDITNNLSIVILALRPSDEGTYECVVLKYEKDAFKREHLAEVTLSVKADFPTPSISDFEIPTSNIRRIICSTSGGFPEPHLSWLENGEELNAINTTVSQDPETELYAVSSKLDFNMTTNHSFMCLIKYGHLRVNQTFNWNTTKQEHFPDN
Procedure: Evaluation of B7-1/CD28 Binding Inhibition for Test Compounds
Wells are coated with 300 ng CD28-Fc in carbonate buffer (pH 9.4) overnight at 4° C., blocked with 1% bovine serum albumin in tris-buffered saline (TBS) for 1 h at 22° C. and washed 3 times in TBS prior to assay. The detection complex is formed as follows: B7-1-Fc-biotin, prepared using NHS-LC-biotin (Pierce #21335) according to the manufacturers instructions (4.1 moles biotinimole Fc), is added at 0.8 ug/ml to streptavidin-alkaline phosphatase (Caltag Sa1008) at 1:1000 in TBS. A solution of test compound in dimethylsulfoxide (1% final) are added to this complex and incubated 30 min at 22° C. Detection complex (+/−inhibitors) is then added to the CD28 coated wells for 25 min at 22° C., washed 5 times with TBS, developed with the colorimetric substrate pNPP (Pierce #34045) in diethanolamine/MgCl2 buffer (pH 9.5) and read at 405 nm. The inhibition constant (IC50) is calculated by subtracting background binding and comparing to uninhibited (DMSO alone) controls. The inhibition constant represents the concentration of test compound required to achieve 50% inhibition.

Compound | IC50 [nM]
CC(O)c1cccc(NC(=O)c2cccc(-n3[nH]c4c(c(-c5cccc(C(F)(F)F)c5)nc5c4cnn5C)c3=O)c2)c1 (stereo not drawn) [Example 51] | 130
Cn1ncc2c3[nH]n(-c4cccc(C(=O)N5CCSCC5)c4)c(=O)c3c(-c3cccc(C(F)(F)F)c3)nc21 [Example 10] | 70
Cn1ncc2c3[nH]n(-c4cccc(C(=O)NN)c4)c(=O)c3c(-c3cccc(C(F)(F)F)c3)nc21 [Example 44] | 80
Cn1ncc2c3[nH]n(-c4ccc(S(=O)(=O)NCC5CC5)cc4)c(=O)c3c(-c3cccc(C(F)(F)F)c3)nc21 [Example 106, N-cyclopropylmethyl-4-[6-methyl-3-oxo-4-(3-trfluoromethyl-phenyl)-3,6-dihydro-1H-1,2,5,6,7-pentaaza-as-indacen-2-yl]-benzenesulfonamide] | 900
Cn1ncc2c3[nH]n(-c4ccc(C(=O)Nc5cccc(CO)c5)cc4)c(=O)c3c(-c3cccc(C(F)(F)F)c3)nc21 [Example 35, N-[3-(hydroxymethyl)phenyl]4-(6-methyl-3-oxo-4-[3-(trifluoromethyl)phenyl]-3,6-dihydrodipyrazolo[3,4-b:3,4-d]pyridin-2(1H)-yl)benzamide] | 17
COC(=O)CNC(=O)c1cccc(-n2[nH]c3c(c(-c4cccc(C(F)(F)F)c4)nc4c3cnn4C)c2=O)c1 [Example 45] | 100
Cn1ncc2c3[nH]n(-c4cccc(C(=O)N5CCC(C(=O)O)CC5)c4)c(=O)c3c(-c3cccc(C(F)(F)F)c3)nc21 [Example 54] | 860
Cn1ncc2c3[nH]n(-c4cccc(C(=O)Nc5ccc(O)cc5)c4)c(=O)c3c(-c3cccc(C(F)(F)F)c3)nc21 [Example 7, N-(4-hydroxyphenyl)-3-(6-methyl-3-oxo-4-[3-(trifluoromethyl)phenyl]-3,6-dihydrodipyrazolo[3,4-b:3,4-d]pyridin-2(1H)-yl)benzamide] | 38
Cn1ncc2c3[nH]n(-c4cccc(C(=O)N5CCOCC5)c4)c(=O)c3c(-c3cccc(C(F)(F)F)c3)nc21 [Example 6] | 54
Cn1ncc2c3[nH]n(-c4cccc(C(=O)N5CCC(O)CC5)c4)c(=O)c3c(-c3cccc(C(F)(F)F)c3)nc21 [Example 59] | 105
CN(Cc1ccccc1)C(=O)c1cccc(-n2[nH]c3c(c(-c4cccc(C(F)(F)F)c4)nc4c3cnn4C)c2=O)c1 [Example 56] | 180
Cn1ncc2c3[nH]n(-c4cccc(C(=O)NCc5ccccc5)c4)c(=O)c3c(-c3cccc(C(F)(F)F)c3)nc21 [Example 49] | 120
Cn1ncc2c3[nH]n(-c4cccc(C(=O)Nc5ccc(CCO)cc5)c4)c(=O)c3c(-c3cccc(C(F)(F)F)c3)nc21 [Example 55] | 110
COCCNC(=O)c1cccc(-n2[nH]c3c(c(-c4cccc(C(F)(F)F)c4)nc4c3cnn4C)c2=O)c1 [Example 20] | 62
Cn1ncc2c3[nH]n(-c4cccc(C(=O)Nc5cccc(CO)c5)c4)c(=O)c3c(-c3cccc(C(F)(F)F)c3)nc21 [Example 50] | 100
COc1ccc(CNC(=O)c2cccc(-n3[nH]c4c(c(-c5cccc(C(F)(F)F)c5)nc5c4cnn5C)c3=O)c2)cc1 [Example 60] | 180
COC(CN(C)C(=O)c1cccc(-n2[nH]c3c(c(-c4cccc(C(F)(F)F)c4)nc4c3cnn4C)c2=O)c1)OC [Example 8, N-(2,2-dimethoxyethyl)-N-methyl-3-(6-methyl-3-oxo-4-[3-(trfluoromethyl)phenyl]-3,6-dihydrodipyrazolo[3,4-b:3,4-d]pyridin-2(1H)-yl)benzamide] | 31

Second part, the molecule after the results:

IC50 [nM] | Compound
800 | CCC(O)c1cccc(NC(=O)c2ccc(-n3[nH]c4c(c(-c5cccc(C(F)(F)F)c5)nc5c4cnn5C)c3=O)cc2)c1 (stereo not drawn) [Example 100]
120 | Cn1ncc2c3[nH]n(-c4ccc(C(=O)Nc5ccc(F)c(F)c5)cc4)c(=O)c3c(-c3cccc(C(F)(F)F)c3)nc21 [Example 82]
107 | Cn1ncc2c3[nH]n(-c4ccc(C(=O)NCC5CC5)cc4)c(=O)c3c(-c3cccc(C(F)(F)F)c3)nc21 [Example 75]
140 | Cn1ncc2c3[nH]n(-c4ccc(C(=O)N5CCSCC5)cc4)c(=O)c3c(-c3cccc(C(F)(F)F)c3)nc21 [Example 77]
120 | CC(C)c1ccc(NC(=O)c2ccc(-n3[nH]c4c(c(-c5cccc(C(F)(F)F)c5)nc5c4cnn5C)c3=O)cc2)cc1 [Example 78]
38 | Cn1ncc2c3[nH]n(-c4ccc(C(N)=O)cc4)c(=O)c3c(-c3cccc(C(F)(F)F)c3)nc21 [Example 70]
92 | Cn1ncc2c3[nH]n(-c4ccc(C(=O)NCCCCCO)cc4)c(=O)c3c(-c3cccc(C(F)(F)F)c3)nc21 [Example 96]
950 | Cn1ncc2c3[nH]n(-c4ccc(S(=O)(=O)NCCO)cc4)c(=O)c3c(-c3cccc(C(F)(F)F)c3)nc21 [Example 104, N-(2-hydroxyethyl)-4-(6-methyl-3-oxo-4-[3-(trifluoromethyl)phenyl]-3,6-dihydrodipyrazolo[3,4-b:3,4-d]pyridin-2(1H)-yl)benzenesulfonamide]
390 | Cn1ncc2c3[nH]n(-c4ccc(C(=O)N5CCCC(O)C5)cc4)c(=O)c3c(-c3cccc(C(F)(F)F)c3)nc21 (stereo not drawn) [Example 95]
450 | Cn1ncc2c3[nH]n(-c4ccc(S(=O)(=O)NCC(=O)O)cc4)c(=O)c3c(-c3cccc(C(F)(F)F)c3)nc21 [Example 107, ({[4-(6-methyl-3-oxo-4-[3-(trifluoromethyl)phenyl]-3,6-dihydrodipyrazolo[3,4-b:3,4-d]pyridin-2(1H)-yl)phenyl]sulfonyl}amino)acetic acid]
50 | CC(O)CNC(=O)c1ccc(-n2[nH]c3c(c(-c4cccc(C(F)(F)F)c4)nc4c3cnn4C)c2=O)cc1 (stereo not drawn) [Example 76]
44 | Cn1ncc2c3[nH]n(-c4ccc(C(=O)Nc5ccc(CO)cc5)cc4)c(=O)c3c(-c3cccc(C(F)(F)F)c3)nc21 [Example 87]
160 | CN(C)CCCNC(=O)c1ccc(-n2[nH]c3c(c(-c4cccc(C(F)(F)F)c4)nc4c3cnn4C)c2=O)cc1 [Example 90]
290 | CCN(CC)C(=O)C1CCCN(C(=O)c2ccc(-n3[nH]c4c(c(-c5cccc(C(F)(F)F)c5)nc5c4cnn5C)c3=O)cc2)C1 (stereo not drawn) [Example 88]
110 | CN(CCC#N)C(=O)c1ccc(-n2[nH]c3c(c(-c4cccc(C(F)(F)F)c4)nc4c3cnn4C)c2=O)cc1 [Example 72]
40 | Cn1ncc2c3[nH]n(-c4ccc(C(=O)Nc5ccccc5CO)cc4)c(=O)c3c(-c3cccc(C(F)(F)F)c3)nc21 [Example 86]
2400 | Cn1ncc2c3[nH]n(-c4ccc(F)c(C(=O)N5CCOCC5)c4)c(=O)c3c(-c3cccc(C(F)(F)F)c3)nc21 [Example 66]
1800 | CN(CCC(N)=O)C(=O)c1ccc(-n2[nH]c3c(c(-c4cccc(C(F)(F)F)c4)nc4c3cnn4C)c2=O)cc1 [Example 85]
140 | Cn1ncc2c3[nH]n(-c4ccc(C(=O)Nc5cccc(O)c5)cc4)c(=O)c3c(-c3cccc(C(F)(F)F)c3)nc21 [Example 71]
370 | Cn1ncc2c3[nH]n(-c4ccc(F)c(C(=O)Nc5ccc(CO)cc5)c4)c(=O)c3c(-c3cccc(C(F)(F)F)c3)nc21 [Example 68]
170 | COC(CN(C)C(=O)c1ccc(-n2[nH]c3c(c(-c4cccc(C(F)(F)F)c4)nc4c3cnn4C)c2=O)cc1)OC [Example 80]
1200 | Cn1ncc2c3[nH]n(-c4ccc(C(=O)N5CCC(O)CC5)cc4)c(=O)c3c(-c3cccc(C(F)(F)F)c3)nc21 [Example 94]
